Experimental findings from patent US20210177828A1, “TAM FAMILY KINASE /AND CSF1R KINASE INHIBITOR AND USE THEREOF” (Nanjing Transthera Biosciences Co., Ltd., priority 2018, published 2021) are described below.

Type in all cases: biochemical
In one test the target is T1, Axl (h) (Homo sapiens, UniProt P30530).
T1 sequence (P30530 26-894): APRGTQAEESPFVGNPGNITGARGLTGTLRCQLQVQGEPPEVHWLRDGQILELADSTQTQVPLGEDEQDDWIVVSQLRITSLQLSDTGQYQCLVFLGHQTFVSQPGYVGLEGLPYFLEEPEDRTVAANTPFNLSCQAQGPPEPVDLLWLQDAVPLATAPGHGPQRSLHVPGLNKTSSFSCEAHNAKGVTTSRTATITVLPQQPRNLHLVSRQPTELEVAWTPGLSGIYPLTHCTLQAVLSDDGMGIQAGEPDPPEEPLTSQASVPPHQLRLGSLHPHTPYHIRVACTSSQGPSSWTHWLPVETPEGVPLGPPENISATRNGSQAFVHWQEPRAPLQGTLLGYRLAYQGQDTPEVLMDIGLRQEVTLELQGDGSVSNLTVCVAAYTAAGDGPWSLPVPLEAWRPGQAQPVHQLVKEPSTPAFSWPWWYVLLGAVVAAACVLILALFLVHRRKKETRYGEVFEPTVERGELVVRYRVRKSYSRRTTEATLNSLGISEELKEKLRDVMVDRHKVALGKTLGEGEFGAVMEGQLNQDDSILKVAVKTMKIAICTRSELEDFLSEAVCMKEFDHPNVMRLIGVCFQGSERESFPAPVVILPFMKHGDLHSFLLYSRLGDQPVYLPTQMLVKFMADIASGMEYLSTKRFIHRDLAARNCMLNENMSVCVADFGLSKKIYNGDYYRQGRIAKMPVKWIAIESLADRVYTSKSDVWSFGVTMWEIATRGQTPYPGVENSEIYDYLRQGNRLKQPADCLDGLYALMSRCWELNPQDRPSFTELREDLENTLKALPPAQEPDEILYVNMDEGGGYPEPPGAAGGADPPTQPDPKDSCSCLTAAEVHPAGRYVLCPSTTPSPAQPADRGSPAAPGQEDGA
Briefly: Enzymatic activity assay, Axl (h), [γ-33P]-ATP filter assay. Conditions: 10 μM ATP, 40 min room temperature; read-out: Inhibitory activity IC50 Axl(h). How it is done:
(§1) Compounds were each dissolved in 100% DMSO to prepare stock solutions with a maximum concentration of 500 μM.
(§2) Compound working solutions (50×) were prepared by diluting a compound stock solution to a final concentration of 500, 150, 50, 15, 5, 1.5, 0.5, 0.15 and 0.05 μM.
An enzyme solution with a final concentration of 1.7 nM was prepared by dissolving Axl (h) enzyme in a mixture of 8 mM MOPS (pH 7.0), 0.2 mM EDTA and 250 μM KKSRGDYMTMQIG. A Mg/ATP mixture of 10 mM magnesium acetate and 10 μM [γ-^33P]-ATP was used to activate the enzymatic reaction.
(§3) A compound working solution was added to a 384-well plate, with final concentrations of 10,000, 3,000, 1,000, 300, 100, 30, 10, 3 and 1 nM, and then different enzymatic reaction solutions prepared according to the above conditions were added. The reaction solutions were incubated at room temperature for 40 min, and then 0.5% phosphoric acid solutions were added to terminate the reaction. 10 μL of the reaction solution was added dropwise to P30 filter paper, washed 4 times with a 0.425% phosphoric acid solution and once with methanol, and then placed in a scintillation counter for detection. Gray analysis was performed on the results with Image J software, and IC50 values were calculated with GraphPad 5.0 software.

A further test concerns the target T2, Mer (h) (Homo sapiens, UniProt Q12866).
T2 sequence (Q12866 21-999): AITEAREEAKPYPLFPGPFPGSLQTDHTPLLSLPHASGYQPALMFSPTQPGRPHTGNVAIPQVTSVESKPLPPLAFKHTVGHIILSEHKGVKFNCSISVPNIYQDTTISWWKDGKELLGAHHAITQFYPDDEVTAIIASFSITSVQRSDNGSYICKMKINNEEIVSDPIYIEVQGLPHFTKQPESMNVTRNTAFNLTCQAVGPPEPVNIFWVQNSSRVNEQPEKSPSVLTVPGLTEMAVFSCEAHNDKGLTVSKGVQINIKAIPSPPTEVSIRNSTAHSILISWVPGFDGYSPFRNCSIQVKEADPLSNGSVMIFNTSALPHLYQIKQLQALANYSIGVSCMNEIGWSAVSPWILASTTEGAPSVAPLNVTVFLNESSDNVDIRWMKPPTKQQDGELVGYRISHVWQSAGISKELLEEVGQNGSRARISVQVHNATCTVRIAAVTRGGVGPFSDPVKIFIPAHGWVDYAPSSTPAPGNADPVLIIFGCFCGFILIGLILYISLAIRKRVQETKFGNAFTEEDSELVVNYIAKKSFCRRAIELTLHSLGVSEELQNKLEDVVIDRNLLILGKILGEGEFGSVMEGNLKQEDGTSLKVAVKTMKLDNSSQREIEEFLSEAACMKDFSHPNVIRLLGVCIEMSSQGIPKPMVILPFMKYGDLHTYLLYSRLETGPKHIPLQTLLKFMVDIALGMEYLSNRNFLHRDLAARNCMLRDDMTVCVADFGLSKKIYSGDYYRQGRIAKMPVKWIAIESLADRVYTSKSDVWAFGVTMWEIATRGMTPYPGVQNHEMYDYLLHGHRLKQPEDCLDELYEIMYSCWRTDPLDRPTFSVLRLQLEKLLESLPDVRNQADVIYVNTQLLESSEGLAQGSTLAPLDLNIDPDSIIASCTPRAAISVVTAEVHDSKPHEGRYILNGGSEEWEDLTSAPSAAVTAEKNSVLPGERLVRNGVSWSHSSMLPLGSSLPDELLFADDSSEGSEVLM
Put plainly: Enzymatic activity assay, Mer (h), [γ-33P]-ATP filter assay. Conditions: 10 μM ATP, 40 min room temperature; read-out: Inhibitory activity IC50 Mer(h). How it is done:
as §1, §2
An enzyme solution with a final concentration of 3.1 nM was prepared by dissolving Mer (h) enzyme in a mixture of 8 mM MOPS (pH 7.0), 0.2 mM EDTA, 30 mM NaCl and 250 μM GGMEDIYFEFMGGKKK. A Mg/ATP mixture of 10 mM magnesium acetate and 10 μM [γ-^33P]-ATP was used to activate the enzymatic reaction.
as §3

In the next test the target is T3, Tyro-3 (h) (Homo sapiens, UniProt Q06418).
T3 sequence (Q06418 41-890): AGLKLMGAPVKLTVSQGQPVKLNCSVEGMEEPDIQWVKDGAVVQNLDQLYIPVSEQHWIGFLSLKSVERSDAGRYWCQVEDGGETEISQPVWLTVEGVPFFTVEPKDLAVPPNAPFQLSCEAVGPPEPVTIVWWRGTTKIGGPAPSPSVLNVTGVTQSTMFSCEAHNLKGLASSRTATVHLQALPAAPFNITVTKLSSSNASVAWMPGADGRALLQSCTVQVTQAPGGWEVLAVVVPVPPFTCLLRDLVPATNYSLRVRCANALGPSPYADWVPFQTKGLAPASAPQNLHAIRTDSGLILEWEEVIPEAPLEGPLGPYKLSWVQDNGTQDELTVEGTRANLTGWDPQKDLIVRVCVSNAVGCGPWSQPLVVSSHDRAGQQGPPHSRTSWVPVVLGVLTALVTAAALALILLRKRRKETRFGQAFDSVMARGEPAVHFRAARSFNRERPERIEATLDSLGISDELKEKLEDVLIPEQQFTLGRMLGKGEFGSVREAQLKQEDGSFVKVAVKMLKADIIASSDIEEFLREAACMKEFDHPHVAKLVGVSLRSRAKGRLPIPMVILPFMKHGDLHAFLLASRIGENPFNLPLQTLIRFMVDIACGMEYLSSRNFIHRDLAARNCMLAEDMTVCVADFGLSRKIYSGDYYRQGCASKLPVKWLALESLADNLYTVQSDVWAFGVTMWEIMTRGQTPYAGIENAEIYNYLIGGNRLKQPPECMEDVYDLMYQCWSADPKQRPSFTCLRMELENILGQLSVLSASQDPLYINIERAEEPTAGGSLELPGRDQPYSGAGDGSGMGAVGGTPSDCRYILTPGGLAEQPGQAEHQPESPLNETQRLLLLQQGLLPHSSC
Briefly: Enzymatic activity assay, Tyro-3 (h), [γ-33P]-ATP filter assay. Conditions: 10 μM ATP, 40 min room temperature; read-out: Inhibitory activity IC50 Tyro-3(h). How it is done:
as §1, §2
An enzyme solution with a final concentration of 38 nM was prepared by dissolving Tyro3 (h) enzyme in a mixture of 8 mM MOPS (pH 7.0), 0.2 mM EDTA, 1 mM MnCl2 and 250 μM KVEKIGEGTYGVVYK. A Mg/ATP mixture of 10 mM magnesium acetate and 10 μM [γ-^33P]-ATP was used to activate the enzymatic reaction.
as §3

`COc1cc2nccc(Oc3ccc(NC(=O)c4nn(CC5CCSCC5)cc(-c5ccc(C)cc5)c4=O)nc3)c2cc1OC` [Compound 21, N-(5-((6,7-dimethoxyquinolin-4-yl)oxy)pyridin-2-yl)-4-oxo-1-((tetrahydro-2H-thiopyran-4-yl)methyl)-5-(p-tolyl)-1,4-dihydropyridazin-3-carboxamide]: the IC50 was determined as 19 nM on Axl (h), 1 nM on Mer (h) and 29 nM on Tyro-3 (h).
With `COc1ccc(-c2cnc(N)c(-c3ccc(NC(=O)c4cc(-c5ccc(C)cc5)cn(CC5CCOCC5)c4=O)cc3)c2)cc1OC` [Compound 35, N-(4-(2-amino-5-(3,4-dimethoxyphenyl)pyridin-3-yl)phenyl)-2-oxo-1-((tetrahydro-2H-pyran-4-yl)methyl)-5-(p-tolyl)-1,2-dihydropyridin-3-carboxamide], the IC50 at Axl (h) was 44 nM.
Same read-out and setting: the same measure for `COc1ccc(-c2cnc(N)c(-c3ccc(NC(=O)c4cn(CC5CCOCC5)c(=O)n(-c5ccc(C)cc5)c4=O)cc3)c2)cc1OC` [Compound 37, N-(4-(2-amino-5-(3,4-dimethoxyphenyl)pyridin-3-yl)phenyl)-2,4-dioxo-1-((tetrahydro-2H-pyran-4-yl)methyl)-3-(p-tolyl)-1,2,3,4-tetrahydropyrimidin-5-carboxamide]: 57 nM.
Take `COc1cc2nccc(Oc3cnc(NC(=O)c4nn(CC5CCSCC5)cc(-c5ccc(C)cc5)c4=O)nc3)c2cc1OC` [Compound 23, N-(5-((6,7-dimethoxyquinolin-4-yl)oxy)pyrimidin-2-yl)-4-oxo-1-((tetrahydro-2H-thiopyran-4-yl)methyl)-5-(p-tolyl)-1,4-dihydropyridazin-3-carboxamide]: the IC50 on Axl (h) was 9 nM; on Mer (h), 8 nM; on Tyro-3 (h), 33 nM.
Regarding `COc1cc2nccc(O[C@H]3CC[C@@H](NC(=O)c4cn(CC5CCOCC5)cc(-c5ccc(C)cc5)c4=O)CC3)c2cc1OC` [Compound 38, N-((cis)-4-((6,7-dimethoxyquinolin-4-yl)oxy)cyclohexyl)-4-oxo-1-((tetrahydro-2H-pyran-4-yl)methyl)-5-(p-tolyl)-1,4-dihydropyridin-3-carboxamide], on Axl (h), the IC50 was determined as 22 nM.
In the case of `COc1cc2nccc(Oc3cnc(NC(=O)c4cn(CC5CCSCC5)cc(-c5ccc(C)cc5)c4=O)nc3)c2cc1OC` [Compound 22, N-(5-((6,7-dimethoxyquinolin-4-yl)oxy)pyrimidin-2-yl)-4-oxo-1-((tetrahydro-2H-thiopyran-4-yl)methyl)-5-(p-tolyl)-1,4-dihydropyridin-3-carboxamide], the IC50 at Axl (h) is 16 nM; on Mer (h), 5 nM; on Tyro-3 (h) it was 103 nM.

As a reminder, the IC50 is the point on the concentration scale where inhibition reaches its midpoint.
